Reference: PubChem BioAssay AID248 (DTP/NCI, 2004)
“And” between values parts separate entries of the source, which are not always exact repeats. Equal values may be shown once. Toxic doses and inconclusive results are not listed.

Test system: L1210 leukemia ip in BDF1 mice, survival T/C
Test: NCI In Vivo Anticancer Drug Screen. Data for tumor model L1210 Leukemia (intraperitoneal) in B6D2F1 (BDF1) mice
Details: endpoint: mean survival time, higher = longer survival
How it was run: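 Each compound was tested against a transplantable tumor grown in mice. The endpoint was survival, with treated animals benchmarked against vehicle controls as a simple ratio.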

[1] = dose: 100.0 mg/kg/injection, schedule: Q04DX002 (ip), vehicle: Klucel (hydroxypropylcellulose) (HPC)
[2] = dose: 200.0 mg/kg/injection, schedule: Q04DX002 (ip), vehicle: Klucel (hydroxypropylcellulose) (HPC)
[3] = dose: 400.0 mg/kg/injection, schedule: Q04DX002 (ip), vehicle: Klucel (hydroxypropylcellulose) (HPC)
[4] = dose: 100.0 mg/kg/injection, schedule: Q01DX001 (ip), vehicle: saline
[5] = dose: 200.0 mg/kg/injection, schedule: Q01DX001 (ip), vehicle: saline
[6] = dose: 400.0 mg/kg/injection, schedule: Q01DX001 (ip), vehicle: saline
[7] = dose: 100.0 mg/kg/injection, schedule: Q01DX009 (ip), vehicle: saline
[8] = dose: 100.0 mg/kg/injection, schedule: Q04DX003 (ip), vehicle: saline
[9] = dose: 200.0 mg/kg/injection, schedule: Q01DX009 (ip), vehicle: saline
[10] = dose: 200.0 mg/kg/injection, schedule: Q04DX003 (ip), vehicle: saline
[11] = dose: 400.0 mg/kg/injection, schedule: Q01DX009 (ip), vehicle: saline
[12] = dose: 400.0 mg/kg/injection, schedule: Q04DX003 (ip), vehicle: saline
[13] = dose: 100.0 mg/kg/injection, schedule: Q01DX001 (ip), vehicle: other
[14] = dose: 100.0 mg/kg/injection, schedule: Q04DX003 (ip), vehicle: Klucel (hydroxypropylcellulose) (HPC)
[15] = dose: 200.0 mg/kg/injection, schedule: Q04DX003 (ip), vehicle: Klucel (hydroxypropylcellulose) (HPC)
[16] = dose: 400.0 mg/kg/injection, schedule: Q04DX003 (ip), vehicle: Klucel (hydroxypropylcellulose) (HPC)
[17] = dose: 75.0 mg/kg/injection, schedule: Q01DX001 (ip), vehicle: saline
[18] = dose: 150.0 mg/kg/injection, schedule: Q01DX001 (ip), vehicle: saline
[19] = dose: 300.0 mg/kg/injection, schedule: Q01DX001 (ip), vehicle: saline
[20] = dose: 100.0 mg/kg/injection, schedule: Q04DX003 (ip), vehicle: saline with Tween-80

For `COc1cccc2c1C(=O)c1c(O)c3c(c(O)c1C2=O)CC(O)(C(C)=O)CC3OC1CC(NC(=S)Nc2ccccc2)C(O)C(C)O1` (configuration not stated), the T/C (dose: 2.0 mg/kg/injection, schedule: Q04DX003 (ip), vehicle: water) was 105 % of control, the T/C (dose: 3.12 mg/kg/injection, schedule: Q01DX009 (ip), vehicle: saline with Tween-80) was 117 % of control and the T/C (dose: 4.0 mg/kg/injection, schedule: Q04DX003 (ip), vehicle: water) was 111 % of control. For the same compound, the T/C (dose: 6.25 mg/kg/injection, schedule: Q01DX009 (ip), vehicle: saline with Tween-80) was 122 % of control, the T/C (dose: 8.0 mg/kg/injection, schedule: Q04DX003 (ip), vehicle: water) was 106 % of control and the T/C (dose: 12.5 mg/kg/injection, schedule: Q01DX009 (ip), vehicle: saline with Tween-80) was 123 % of control. For the same compound, the T/C (dose: 16.0 mg/kg/injection, schedule: Q04DX003 (ip), vehicle: water) was 120 % of control and 123 % of control, the T/C (dose: 32.0 mg/kg/injection, schedule: Q04DX003 (ip), vehicle: water) was 123 % of control and the T/C (dose: 64.0 mg/kg/injection, schedule: Q04DX003 (ip), vehicle: water) was 118 % of control. For the same compound, the T/C (dose: 125.0 micrograms/kg/injection, schedule: Q04DX003 (ip), vehicle: water) was 98 % of control, the T/C (dose: 250.0 micrograms/kg/injection, schedule: Q04DX003 (ip), vehicle: water) was 103 % of control and the T/C (dose: 500.0 micrograms/kg/injection, schedule: Q04DX003 (ip), vehicle: water) was 107 % of control. The T/C (dose: 1000.0 micrograms/kg/injection, schedule: Q04DX003 (ip), vehicle: water) was 102 % of control and the T/C (dose: 2000.0 micrograms/kg/injection, schedule: Q04DX003 (ip), vehicle: water) was 104 % of control.
In the case of `O=C(NCc1cccc2ccccc12)Nc1ccccc1Cl`, the T/C [1] is reported as 100 % of control, the T/C [2] is reported as 104 % of control and the T/C [3] is reported as 96 % of control.
With `Cc1cc(Cl)nc2ccc(Cc3ccc(Br)cc3)cc12` the T/C [4] was 95 % of control, the T/C [5] was 96 % of control and the T/C [6] was 91 % of control.
For `Oc1cc2c(cc1O)C1c3ccc(O)c(O)c3OCC1(O)C2` (configuration not stated), the T/C [7] was 102 % of control, the T/C [8] was 110 % of control and the T/C [9] was 104 % of control. For the same compound, the T/C [10] was 104 % of control, the T/C [11] was 101 % of control and the T/C [12] was 102 % of control.
In the case of `O=C(Nc1ccc(Br)cc1C(=O)O)c1cccc(Br)c1`, the T/C [13] is reported as 103 % of control.
`CC(C)(CS(C)(=O)=O)C(=O)OCC(=O)c1ccccc1` was tested, and the T/C [14] was 108 % of control, the T/C [15] was 105 % of control and the T/C [16] was 105 % of control.
For `COc1ccc2nc(N=Nc3c(N)nc(N)[nH]c3=O)sc2c1`, the T/C (dose: 50.0 mg/kg/injection, schedule: Q04DX003 (ip), vehicle: Klucel (hydroxypropylcellulose) (HPC)) was 102 % of control, the T/C (dose: 100.0 mg/kg/injection, schedule: Q01DX001 (ip), vehicle: carboxymethylcellulose (CMC)) was 106 % of control and the T/C [14] was 104 % of control. The T/C (dose: 200.0 mg/kg/injection, schedule: Q01DX001 (ip), vehicle: carboxymethylcellulose (CMC)) was 106 % of control, the T/C [15] was 101 % of control and the T/C (dose: 400.0 mg/kg/injection, schedule: Q01DX001 (ip), vehicle: carboxymethylcellulose (CMC)) was 101 % of control.
With `c1ccc2c(c1)ccc1cc3cnccc3cc12` the T/C [4] was 95 % of control, the T/C [5] was 103 % of control and the T/C [6] was 101 % of control.
In the case of `O=[N+]([O-])c1cc([N+](=O)[O-])c(/C=C/c2cccc(OCc3ccccc3)c2)cc1/C=C/c1cccc(OCc2ccccc2)c1`, the T/C [17] is reported as 91 % of control, the T/C [18] is reported as 89 % of control and the T/C [19] is reported as 91 % of control.
In the case of `C1CCN(SN2CCCCC2)CC1`, the T/C [7] is reported as 100 % of control and the T/C [9] is reported as 102 % of control.
`CCCCCCCCCCC/C=N/NC(=O)c1ccc[n+](C)c1` was tested, and the T/C (dose: 50.0 mg/kg/injection, schedule: Q01DX009 (ip), vehicle: saline) was 108 % of control, the T/C [7] was 108 % of control and the T/C [9] was 110 % of control.
`C=CCNc1cc(NN)nn2nnnc12` was tested, and the T/C [1] was 108 % of control, the T/C [2] was 104 % of control and the T/C [3] was 123 % of control.
With `O=C(Nc1c(Oc2ccc(Cl)c(Cl)c2)ccc(Cl)c1S(=O)(=O)O)Nc1c(Oc2ccc(Cl)c(Cl)c2)ccc(Cl)c1S(=O)(=O)O` the T/C [17] was 101 % of control, the T/C [18] was 99 % of control and the T/C [19] was 96 % of control.
`CN1C(=O)C2(C)CCC1c1ccccc12` (configuration not stated) was tested, and the T/C [13] was 103 % of control and the T/C (dose: 200.0 mg/kg/injection, schedule: Q01DX001 (ip), vehicle: other) was 103 % of control.
For `CN(C(=O)CCCO)c1cc([N+](=O)[O-])ccc1OCc1ccccc1`, the T/C (dose: 100.0 mg/kg/injection, schedule: Q01DX009 (ip), vehicle: saline with Tween-80) was 93 % of control, the T/C [20] was 92 % of control and the T/C (dose: 200.0 mg/kg/injection, schedule: Q01DX009 (ip), vehicle: saline with Tween-80) was 93 % of control. The T/C (dose: 200.0 mg/kg/injection, schedule: Q04DX003 (ip), vehicle: saline with Tween-80) was 101 % of control, the T/C (dose: 400.0 mg/kg/injection, schedule: Q01DX009 (ip), vehicle: saline with Tween-80) was 90 % of control and the T/C (dose: 400.0 mg/kg/injection, schedule: Q04DX003 (ip), vehicle: saline with Tween-80) was 92 % of control.
In the case of `C1CNCCNCCCNCCNC1`, the T/C (dose: 12.5 mg/kg/injection, schedule: Q04DX002 (ip), vehicle: saline with Tween-80) is reported as 93 % of control, the T/C (dose: 25.0 mg/kg/injection, schedule: Q04DX002 (ip), vehicle: saline with Tween-80) is reported as 101 % of control and the T/C (dose: 50.0 mg/kg/injection, schedule: Q04DX002 (ip), vehicle: saline with Tween-80) is reported as 90 % of control.
For `CCN(CC)CC(=O)NCC(CCN(C)C)(c1cccc2ccccc12)C(C)C` (configuration not stated), the T/C [8] was 102 % of control and the T/C [10] was 93 % of control.
With `CC(=O)CC(Br)CBr` (configuration not stated) the T/C (dose: 25.0 mg/kg/injection, schedule: Q04DX003 (ip), vehicle: saline with Tween-80) was 91 % of control, the T/C (dose: 50.0 mg/kg/injection, schedule: Q04DX003 (ip), vehicle: saline with Tween-80) was 98 % of control and the T/C [20] was 100 % of control.
`CCOC(=O)C1=C2C(C(=O)OCC)C(O)=C(C(=O)OCC)C2C(C(=O)OCC)C1=O` (configuration not stated) was tested, and the T/C [4] was 103 % of control, the T/C [7] was 104 % of control and the T/C [8] was 97 % of control. The T/C [5] was 92 % of control, the T/C [9] was 104 % of control and the T/C [10] was 103 % of control. For the same compound, the T/C [6] was 97 % of control, the T/C [11] was 109 % of control and the T/C [12] was 117 % of control.
With `CCOC(=O)c1cnn(-c2ccccc2)c1C` the T/C (dose: 100.0 mg/kg/injection, schedule: Q01DX009 (ip), vehicle: Klucel (hydroxypropylcellulose) (HPC)) was 94 % of control, the T/C [14] was 112 % of control and the T/C (dose: 200.0 mg/kg/injection, schedule: Q01DX009 (ip), vehicle: Klucel (hydroxypropylcellulose) (HPC)) was 94 % of control. The T/C [15] was 95 % of control, the T/C (dose: 400.0 mg/kg/injection, schedule: Q01DX009 (ip), vehicle: Klucel (hydroxypropylcellulose) (HPC)) was 102 % of control and the T/C [16] was 88 % of control.
For `O=C(O)CC(NCc1ccccc1)C1CCCCC1` (configuration not stated), the T/C (dose: 100.0 mg/kg/injection, schedule: Q01DX001 (ip), vehicle: Klucel (hydroxypropylcellulose) (HPC)) was 95 % of control, the T/C (dose: 200.0 mg/kg/injection, schedule: Q01DX001 (ip), vehicle: Klucel (hydroxypropylcellulose) (HPC)) was 101 % of control and the T/C (dose: 400.0 mg/kg/injection, schedule: Q01DX001 (ip), vehicle: Klucel (hydroxypropylcellulose) (HPC)) was 98 % of control.
In the case of `COC1CC(OS(=O)(=O)c2ccc(C)cc2)C(OS(=O)(=O)c2ccc(C)cc2)C(C)O1` (configuration not stated), the T/C [4] is reported as 100 % of control, the T/C [5] is reported as 98 % of control and the T/C [6] is reported as 98 % of control.
For `O=C(Nc1ccc(NC(=O)Nc2ccc(C3=NCCN3)cc2)cc1)Nc1ccc(C2=NCCN2)cc1`, the T/C (dose: 110.0 mg/kg/injection, schedule: Q01DX Z (ip), vehicle: carboxymethylcellulose (CMC)) was 100 % of control and 115 % of control, the T/C (dose: 240.0 mg/kg/injection, schedule: Q01DX Z (oral), vehicle: carboxymethylcellulose (CMC)) was 98 % of control and the T/C (dose: 303.0 mg/kg/injection, schedule: Q01DX Z (ip), vehicle: carboxymethylcellulose (CMC)) was 160 % of control. For the same compound, the T/C (dose: 375.0 mg/kg/injection, schedule: Q01DX Z (ip), vehicle: carboxymethylcellulose (CMC)) was 98 % of control, the T/C (dose: 455.0 mg/kg/injection, schedule: Q01DX Z (ip), vehicle: carboxymethylcellulose (CMC)) was 93 % of control and the T/C (dose: 480.0 mg/kg/injection, schedule: Q01DX Z (oral), vehicle: carboxymethylcellulose (CMC)) was 104 % of control. The T/C (dose: 960.0 mg/kg/injection, schedule: Q01DX Z (oral), vehicle: carboxymethylcellulose (CMC)) was 107 % of control.
